Reference: US12509447B2, “Small molecule compound” (Technoderma Medicines Pte Ltd, priority 2019, dated 2025)

Tests used:
[1] = molecular target: Tyk2 (Homo sapiens, UniProt P29597); test: Inhibition of JAK kinase activity, EZ Reader microfluidic phosphorylation of peptide substrate: Tyk2; type: biochemical; conditions: Tyk2 kinase 1 nM; highest final concentration 10 μM, 1:3 serial dilution, 8 points, duplicates
Description: (§1) EZ Reader available from PerkinElmer can be used for detecting the phosphorylation of polypeptide substrates catalyzed by kinases. This device is based on microfluidic separation technology, and can directly detect fluorescence labeled substrates and products. The separation step is achieved in a microfluidic chip by controlling the pressure and electric field intensity. In a kinase experiment, the product conversion rate is generally controlled at 20-30%. This biological assay method is used for identifying the inhibitory effect of the compounds on JAK.
(§2) The compound powder was dissolved in DMSO, sealed and stored in a refrigerator at −20° C. The in-house compound Ref1 was used as a positive control for testing of JAK1, JAK2 and Tyk2, and Ref2 was used as a positive control for testing of JAK3.
(§3) • S2.1. 1M HEPES buffer: 0.5M HEPES free acid and 0.5M HEPES sodium salt are weighed, added into ultrapure water for dissolution, brought to a desired volume, filtered and stored in a refrigerator at 4° C. • S2.2. 40 mM ATP solution: dissolved in a 50 mM HEPES buffer solution, prepared into 40 mM, aliquoted, and cryopreserved in a refrigerator at −20° C. • S2.3. 0.5% Tween 20: 100% Tween 20 was diluted with ultrapure water, and stored in a refrigerator at 4° C. • S2.4. 35% bovine serum albumin: a 35% bovine serum albumin solution is prepared in ultrapure water, aliquoted, and stored in a refrigerator at −20° C. • S2.5. 1M dithiothreitol solution: dithiothreitol is formulated into a 1M solution with ultrapure water, aliquoted, and stored in a refrigerator at −20° C. • S2.6. 0.5 mM Jaktide Peptide substrate solution: it is dissolved in 50 mM HEPES to 0.5 mM, aliquoted, and stored in a refrigerator at −20° C. • S2.7. 0.5 mM IRStide Peptide substrate solution: it is dissolved in 50 mM HEPES to 0.5 mM, aliquoted, and stored in a refrigerator at −20° C. • S2.8. Assay Buffer: 20 mM HEPES buffer, pH 7.4, 10 mM magnesium chloride, 0.01% bovine serum albumin BSA, 0.0005% Tween-20, and a 1 mM dithiothreitol solution. • S2.9. Stop Buffer: 180 mM HEPES buffer, 20 mM ethylenediamine tetraacetic acid (EDTA), and 0.2% Coating Reagent 3. • S2.10. Separation Buffer: 100 mM HEPES buffer, 10 mM EDTA, 0.0005% Tween 20, 0.1% Coating Reagent 3, and 1% dimethyl sulfoxide. 3. Experimental Procedures • S3.1. Preparation of compound plate
(§4) The compound is dissolved in dimethyl sulfoxide to 10 mM, a certain volume is taken and diluted to 0.6 mM, 10 μl of the diluted 0.6 mM solution is taken and added into a 384 microplate or 1:3 serial dilution, with a total of 8 concentration points. • S3.2. Compound layout
(§5) • positive control (HPE1): Ref1, final concentration: 10 μM • positive control (HPE1): Ref2, final concentration: 10 μM • negative control (ZPE): DMSO, with a final concentration of 1.6% • Compound: the highest final concentration at 10 μM, 1:3 serial dilution, with 8 concentration points and in duplicates. 4. Experimental operation steps • S4.1. the experimental plate was added with 250 nl of the compound per well with ECHO, and centrifuged at 1,000 rpm for 1 minute; • S4.2. the precipitate was added with 5 μl of the experimental buffer, and shaken for several seconds to fully dissolve the compound; • S4.3. the solution was added with 5 μl of a 3× substrate solution, as well as 5 μl of a 3× kinase solution, and centrifuged at 800 rpm for 1 minute; • S4.4. The final concentrations of JAK1, JAK2, JAK3 and Tyk2 kinases in the reaction system are 20, 1, 1 and 1 nM, respectively. • S4.5. the reaction system is incubated at room temperature, wherein the incubation time of each kinase is different, and there are differences in incubation time of different batches of kinases. • S4.6. When the reaction reaches 20%-30%, the reaction system is added with 15 μl of the stop buffer to terminate the reaction, and centrifuged at 1,000 rpm for 2 minutes. • S4.7. The precipitate was placed onto a EZ Reader for plate reading. • S4.8. […]

[2] = molecular target: JAK1 (Homo sapiens, UniProt P23458); test: Inhibition of JAK kinase activity, EZ Reader microfluidic phosphorylation of peptide substrate: JAK1; type: biochemical; conditions: JAK1 kinase 20 nM; highest final concentration 10 μM, 1:3 serial dilution, 8 points, duplicates
Chain of JAK1 (P23458 whole entry): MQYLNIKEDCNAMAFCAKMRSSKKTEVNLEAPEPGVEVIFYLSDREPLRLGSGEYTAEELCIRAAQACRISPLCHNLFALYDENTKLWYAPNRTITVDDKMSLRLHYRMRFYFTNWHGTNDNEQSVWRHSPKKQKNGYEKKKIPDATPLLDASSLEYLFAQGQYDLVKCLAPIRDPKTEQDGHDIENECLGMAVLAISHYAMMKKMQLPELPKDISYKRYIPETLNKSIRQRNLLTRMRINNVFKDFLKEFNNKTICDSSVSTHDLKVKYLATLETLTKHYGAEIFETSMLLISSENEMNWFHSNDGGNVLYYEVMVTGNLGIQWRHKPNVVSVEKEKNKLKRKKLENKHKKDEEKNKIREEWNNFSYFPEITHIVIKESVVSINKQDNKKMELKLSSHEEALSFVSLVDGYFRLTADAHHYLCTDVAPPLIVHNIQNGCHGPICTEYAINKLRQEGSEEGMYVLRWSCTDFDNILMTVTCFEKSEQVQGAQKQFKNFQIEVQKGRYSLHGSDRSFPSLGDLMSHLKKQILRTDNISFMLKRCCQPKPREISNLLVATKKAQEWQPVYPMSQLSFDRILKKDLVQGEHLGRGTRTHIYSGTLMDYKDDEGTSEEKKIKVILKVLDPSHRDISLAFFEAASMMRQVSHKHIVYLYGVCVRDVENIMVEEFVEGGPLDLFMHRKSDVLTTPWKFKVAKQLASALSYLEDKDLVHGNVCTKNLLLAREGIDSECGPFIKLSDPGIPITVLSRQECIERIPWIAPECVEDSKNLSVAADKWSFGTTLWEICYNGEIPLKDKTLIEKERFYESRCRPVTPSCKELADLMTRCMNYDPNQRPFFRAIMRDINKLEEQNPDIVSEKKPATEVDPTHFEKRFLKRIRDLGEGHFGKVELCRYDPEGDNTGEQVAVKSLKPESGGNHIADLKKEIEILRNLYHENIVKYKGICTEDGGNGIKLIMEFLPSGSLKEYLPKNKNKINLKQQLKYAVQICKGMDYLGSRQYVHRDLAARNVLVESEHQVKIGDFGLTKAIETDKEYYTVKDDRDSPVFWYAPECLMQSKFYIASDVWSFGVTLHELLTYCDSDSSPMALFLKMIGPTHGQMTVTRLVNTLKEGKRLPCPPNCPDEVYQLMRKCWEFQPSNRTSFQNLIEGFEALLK
Description: as §1, §2, §3, §4, §5

Chain of Tyk2 (P29597 whole entry): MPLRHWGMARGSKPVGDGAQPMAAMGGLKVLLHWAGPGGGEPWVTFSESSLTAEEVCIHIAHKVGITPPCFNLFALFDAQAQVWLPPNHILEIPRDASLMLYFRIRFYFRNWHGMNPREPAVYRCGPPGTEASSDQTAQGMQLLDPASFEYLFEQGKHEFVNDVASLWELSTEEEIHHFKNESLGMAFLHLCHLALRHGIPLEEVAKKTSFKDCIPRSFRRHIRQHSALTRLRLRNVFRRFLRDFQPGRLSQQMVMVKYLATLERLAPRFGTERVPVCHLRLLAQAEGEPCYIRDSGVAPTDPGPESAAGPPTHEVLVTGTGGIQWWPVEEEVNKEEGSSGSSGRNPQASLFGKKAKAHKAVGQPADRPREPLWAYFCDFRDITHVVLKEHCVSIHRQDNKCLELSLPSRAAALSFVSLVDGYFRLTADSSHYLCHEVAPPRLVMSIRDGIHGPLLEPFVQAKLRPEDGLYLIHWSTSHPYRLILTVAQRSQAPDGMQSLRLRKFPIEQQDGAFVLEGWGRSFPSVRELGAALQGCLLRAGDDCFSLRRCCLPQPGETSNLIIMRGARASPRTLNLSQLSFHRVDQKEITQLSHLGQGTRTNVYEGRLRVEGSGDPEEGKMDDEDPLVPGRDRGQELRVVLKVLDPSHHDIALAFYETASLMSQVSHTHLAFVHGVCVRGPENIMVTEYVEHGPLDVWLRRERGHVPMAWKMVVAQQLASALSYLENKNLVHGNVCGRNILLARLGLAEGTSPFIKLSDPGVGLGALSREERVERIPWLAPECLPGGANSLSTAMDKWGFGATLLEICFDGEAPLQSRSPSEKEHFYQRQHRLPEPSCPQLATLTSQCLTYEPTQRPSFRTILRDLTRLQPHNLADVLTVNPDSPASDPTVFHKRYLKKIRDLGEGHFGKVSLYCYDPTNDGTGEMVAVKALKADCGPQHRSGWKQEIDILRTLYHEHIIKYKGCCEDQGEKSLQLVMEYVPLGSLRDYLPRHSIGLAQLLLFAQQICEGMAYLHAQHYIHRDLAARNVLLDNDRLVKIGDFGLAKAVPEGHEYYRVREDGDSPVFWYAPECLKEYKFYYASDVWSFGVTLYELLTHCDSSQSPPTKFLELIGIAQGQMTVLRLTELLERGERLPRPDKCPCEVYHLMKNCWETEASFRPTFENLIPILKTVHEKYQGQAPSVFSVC

Row | SMILES | IC50 [1] [µM] | IC50 [2] [µM]
1 | COCC(=O)N1CC(CC#N)(n2cc(-c3ccnc(Nc4cnn(C)c4)n3)cn2)C1 [TDM-180765, 2-(1-(2-methoxyacetyl)-3-(4-(2-((1-methyl-1H-pyrazol-4-yl)amino)pyrimidin-4-yl)-1H-pyrazol-1-yl)azetidin-3-yl)acetonitrile] | 1 to 10 | 1 to 10
2 | COCC(=O)N1CC(CC#N)(n2ccc(-c3ccnc(Nc4cnn(C)c4)n3)c2)C1 [TDM-180769, 2-(1-(2-methoxyacetyl)-3-(3-(2-((1-methyl-1H-pyrazol-4-yl)amino)pyrimidin-4-yl)-1H-pyrrol-1-yl)azetidin-3-yl)acetonitrile] | 1 to 10 | 1 to 10
3 | Cn1cc(Nc2nccc(-c3ccn(C4(CC#N)CN(C(=O)CO)C4)c3)n2)cn1 [TDM-180786] | 1 to 10 | 1 to 10
4 | Cn1cc(Nc2nccc(-c3cnn(C4(CC#N)CN(C(=O)CO)C4)c3)n2)cn1 [TDM-180810, 2-(1-(2-hydroxyacetyl)-3-(4-(2-((1-methyl-1H-pyrazol-4-yl)amino)pyrimidin-4-yl)-1H-pyrazol-1-yl)azetidin-3-yl)acetonitrile] | 1 to 10 | 1 to 10
5 | Cn1cc(Nc2nccc(-c3ccn(C4(CC#N)CN(C(=O)C5CC5)C4)n3)n2)cn1 [TDM-180858, 2-(1-(cyclopropanecarbonyl)-3-(3-(2-((1-methy 1-1H-pyrazol-4-yl)amino)pyrimidin-4-yl)-1H-pyrazol-1-yl)azetidinpyridin-3-yl)acetonitrile] | 1 to 10 | 1 to 10
6 | Cn1cc(Nc2nccc(-c3ccn(C4(CC#N)CN(C(=O)C5CC5(F)F)C4)n3)n2)cn1 (stereo not drawn) [TDM-180859, 2-(1-(2,2-difluorcyclopropanecarbonyl)-3-(3-(2-((1-methyl-1H-pyrazol-4-yl)amino)pyrimidin-4-yl)-1H-pyrazol-1-yl)azetidin-3-yl)acetonitrile] | 0.1 to 1 | 0.1 to 1
7 | Cn1cc(Nc2nccc(-c3ccn(C4(CC#N)CN(C(=O)CC(F)(F)F)C4)n3)n2)cn1 [TDM-180860, 2-(3-(3-(2-((1-methyl-1H-pyrazol-4-yl)amino)pyrimidin-4-yl)-1H-pyrazol-1-yl)-1-(3,3,3-trifluoropropionyl)azetidin-3-yl)acetonitrile] | 0.1 to 1 | 0.1 to 1
8 | Cn1cc(Nc2nccc(-c3ccn(C4(CC#N)CN(C(=O)CC#N)C4)n3)n2)cn1 [TDM-180861, 3-(3-(cyanomethyl)-3-(3-(2-((1-methyl-1H-pyrazol-4-yl)amino)pyrimidin-4-yl)-1H-pyrazol-1-yl)azetidinpiperazin-1-yl)-3-oxypropionitrile] | 1 to 10 | 1 to 10
9 | Cn1cc(Nc2nccc(-c3ccn(C4(CC#N)CN(S(=O)(=O)CC(F)(F)F)C4)c3)n2)cn1 [TDM-180866, 2-(3-(3-(2-((1-methyl-1H-pyrazol-4-yl)amino)pyrimidin-4-yl)-1H-pyrrol-1-yl)-1-((2,2,2-trifluoroethyl)sulfonyl)azetidin-3-yl)acetonitrile] | < 0.1 | < 0.1

Results, then the molecule that gave them:

Row | IC50 [1] [µM] | IC50 [2] [µM] | SMILES
10 | 0.1 to 1 | 0.1 to 1 | Cn1cc(Nc2nccc(-c3ccc(C4(CC#N)CN(C(=O)CC#N)C4)cc3)n2)cn1 [TDM-180871, 3-(3-(cyanomethyl)-3-(4-(2-((1-methyl-1H-pyrazol-4-yl)amino)pyrimidin-4-yl)phenyl)azetidin-1-yl)-3-oxopropionitrile]
11 | 0.1 to 1 | 0.1 to 1 | Cn1cc(Nc2nccc(-c3ccc(C4(CC#N)CN(C(=O)C5CC5(F)F)C4)cc3)n2)cn1 (stereo not drawn) [TDM-180872, 2-(1-(2,2-difluorocyclo-1-carbonyl)-3-(4-(2-((1-methyl-1H-pyrazol-4-yl)amino)pyrimidin-4-yl)phenyl)azetidin-3-yl)acetonitrile]
12 | 0.1 to 1 | 0.1 to 1 | Cn1cc(Nc2nccc(-c3ccc(C4(CC#N)CN(C(=O)CC(F)(F)F)C4)cc3)n2)cn1 [TDM-180873, 2-(3-(4-(2-((1-methyl-1H-pyrazol-4-yl)amino)pyrimidin-4-yl)phenyl)-1-(3,3,3-trifluoropropanol)azetidin-3-yl)acetonitrile]
13 | 1 to 10 | 1 to 10 | Cn1cc(Nc2nccc(-c3ccc(C4(CC#N)CN(C(=O)C5CC5)C4)cc3)n2)cn1 [TDM-180880, 2-(1-(cyclopropanecarbonyl)-3-(4-(2-((1-methyl-1H-pyrazol-4-yl)amino)pyrimidin-4-yl)phenyl)azetidin-3-yl)acetonitrile]
14 | 1 to 10 | 0.1 to 1 | Cn1cc(Nc2nccc(-c3ccn(C4(CC#N)CN(S(=O)(=O)C5CCOCC5)C4)n3)n2)cn1 [TDM-180912, 2-(3-(3-(2-((1-methyl-1H-pyrazol-4-yl)amino)pyrimidin-4-yl)-1H-pyrazol-1-yl)-1-((tetrahydro-2H-pyran-4-yl)sulfonyl)azetidin-3-yl)acetonitrile]
15 | 0.1 to 1 | 0.1 to 1 | Cn1cc(Nc2nccc(-c3ccn(C4(CC#N)CN(S(=O)(=O)C5CC5)C4)n3)n2)cn1 [TDM-180915, 2-(1-(cyclopropylsulfonyl)-3-(3-(2-((1-methyl-1H-pyrazol-4-yl)amino)pyrimidin-4-yl)-1H-pyrazol-1-yl)azetidinpyridin-3-yl)acetonitrile]
16 | 1 to 10 | 0.1 to 1 | CCCS(=O)(=O)N1CC(CC#N)(n2ccc(-c3ccnc(Nc4cnn(C)c4)n3)n2)C1 [TDM-180916, 2-(3-(3-(2-((1-methyl-1H-pyrazol-4-yl)amino)pyrimidin-4-yl)-1H-pyrazol-1-yl)-1-(propylsulfonyl)azacyclobutanpyridin-3-yl)acetonitrile]
17 | 1 to 10 | 1 to 10 | Cn1cc(Nc2nccc(-c3ccn(C4(CC#N)CN(S(=O)(=O)CC(F)(F)F)C4)n3)n2)cn1 [TDM-180918, 2-(3-(3-(2-((1-methyl-1H-pyrazol-4-yl)amino)pyrimidin-4-yl)-1H-pyrazol-1-yl)-1-((2,2,2-trifluoroethyl)sulfonyl)azetidin-3-yl)acetonitrile]
18 | 0.1 to 1 | 0.1 to 1 | CCS(=O)(=O)N1CC(CC#N)(n2ccc(-c3ccnc(Nc4cnn(C)c4)n3)n2)C1 [TDM-180922, 2-(1-(ethylsulfonyl)-3-(3-(2-((1-methyl-1H-pyrazol-4-yl)amino)pyrimidin-4-yl)-1H-pyrazol-1-yl)azetidinpyridin-3-yl)acetonitrile]
19 | 0.1 to 1 | 0.1 to 1 | Cn1cc(Nc2nccc(-c3cnn(C4(CC#N)CN(S(=O)(=O)CCCCl)C4)c3)n2)cn1 [TDM-180925, 2-(1-((3-chloropropyl)sulfonyl)-3-(4-(2-((1-methyl-1H-pyrazol-4-yl)amino)pyrimidin-4-yl)-1H-pyrazol-1-yl)azetidin-3-yl)acetonitrile]
20 | 0.1 to 1 | 0.1 to 1 | COC(=O)CCS(=O)(=O)N1CC(CC#N)(n2cc(-c3ccnc(Nc4cnn(C)c4)n3)cn2)C1 [TDM-180927, Ethyl methyl-3-((3-(cyanomethyl)-3-(4-(2-((1-methyl-1H-pyrazol-4-yl)amino)pyrimidin-4-yl)-1H-pyrazol-1-yl)azetidineazetidin-1-yl)sulfonyl)propionate]
21 | < 0.1 | 0.1 to 1 | Cn1cc(Nc2nccc(-c3cnn(C4(CC#N)CN(S(=O)(=O)CC(F)(F)F)C4)c3)n2)cn1 [TDM-180928, 2-(3-(4-(2-((1-methyl-1H-pyrazol-4-yl)amino)pyrimidin-4-yl)-1H-pyrazol-1-yl)-1-((2,2,2-trifluoroethyl)sulfonyl)azetidin-3-yl)acetonitrile]
